For the experiment, the target named is HIV-1 protease (Human immunodeficiency virus type 1 group M subtype B, UniProt P04585). The experiment in a line: biochemical. Put shortly:
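Biotinylated, FITC-labeled peptide substrate (20 μl of 0.2 μM) incubated with HIV-1 protease (10 μl of 0.1 μM) and compound in 0.1 M sodium acetate pH 5.5, 1.0 M NaCl, 0.05% NP-40, 1 h, room temperature, dark. Streptavidin beads then capture uncleaved substrate; filtered labeled product read by fluorescence, giving percent inhibition.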

Where [1] appears, read: dose 1.100 uM, read-out: HIV-1 Protease % Inhib.
[2] abbreviates: dose 3.300 uM, read-out: HIV-1 Protease % Inhib.
Where [3] appears, read: dose 10.000 uM, read-out: HIV-1 Protease % Inhib.
[4] abbreviates: dose 30.000 uM, read-out: HIV-1 Protease % Inhib.

SMILES strings stand for the structures. Where two headings read alike, the source gives them in different places.

Take `CCCOc1ccc2c(O)c(C(CC)c3ccccc3)c(=O)oc2c1` (stereo not shown) [Example 169, Coumarin, 4-hydroxy-3-(1-phenylpropyl)-7-propoxy]: for the setting “read-out: HIV-1 Protease % Inhib, dose 1.100 uM”, the inhibition at 1.1 µM is 13.1%. Further, the inhibition at 3.3 µM (read-out: HIV-1 Protease % Inhib, dose 3.300 uM) amounted to 44.4%. Also, the inhibition at 10 µM (read-out: HIV-1 Protease % Inhib, dose 10.000 uM) is 76.8%. In addition, the inhibition at 30 µM (read-out: HIV-1 Protease % Inhib, dose 30.000 uM) was 99.9%.

As to `COCCOCCC1CCCCCc2c1oc(=O)c(C(c1ccccc1)C1CC1)c2O` (stereo not shown) [Example 172, 3-(Cyclopropylphenylmethyl)-5,6,7,8,9,10-hexahydro-4-hydroxy-10-[2-(2-methoxyethoxy)ethyl]-2H-cycloocta[b]pyran-2-one], under setting [1], the inhibition at 1.1 µM was found to be 31.9%. Further, the inhibition at 3.3 µM under setting [2] is 73.5%. Also, the inhibition at 10 µM under setting [3] was 97.8%. Besides, the inhibition at 30 µM under setting [4] worked out at 110%.

Consider `O=c1oc2c(c(O)c1C(c1ccccc1)C1CC1)CCCCCC2CO` (stereo not shown) [Example 173, 3-(Cyclopropylphenylmethyl)-5,6,7,8,9,10-hexahydro-4-hydroxy-10-(hydroxymethyl)-2H-cycloocta[b]pyran-2-one], for which the inhibition at 1.1 µM under setting [1] amounted to 15%. Under setting [2], the inhibition at 3.3 µM was 36.5%. Besides, under setting [3], the inhibition at 10 µM was 76.7%. Moreover, the inhibition at 30 µM under setting [4] was 97.2%.

Turning to `CC(C)(O)C1CCCCCc2c1oc(=O)c(C(c1ccccc1)C1CC1)c2O` (stereo not shown) [Example 175, 3-(Cyclopropylphenylmethyl)-5,6,7,8,9,10-hexahydro-4-hydroxy-10-(1-hydroxy-1-methylethyl)-2H-cycloocta[b]pyran-2-one], the inhibition at 1.1 µM under setting [1] worked out at 19.4%. In addition, the inhibition at 3.3 µM under setting [2] stood at 55.5%. The inhibition at 10 µM under setting [3] came to 88.5%. Also, under setting [4], the inhibition at 30 µM amounted to 105%.

On to `COCCOCCC1CCCCc2c1oc(=O)c(C(c1ccccc1)C1CC1)c2O` (stereo not shown) [Example 180, 3-(Cyclopropylphenylmethyl)-6,7,8,9-tetrahydro-4-hydroxy-9-[2-(2-methoxyethoxy)ethyl]-cyclohepta[b]pyran-2(5H)-one], for which the inhibition at 1.1 µM under setting [1] came out at 31.3%. Further, the inhibition at 3.3 µM under setting [2] amounted to 67.7%. Further, under setting [3], the inhibition at 10 µM is 94.1%. The inhibition at 30 µM under setting [4] is 109%.

On to `COCCOCCOCCC1CCCCc2c1oc(=O)c(C(c1ccccc1)C1CC1)c2O` (stereo not shown) [Example 181, 3-(Cyclopropylphenylmethyl)-6,7,8,9-tetrahydro-4-hydroxy-9-[2-[2-(2-methoxyethoxy)ethoxy]ethyl]-cyclohepta[b]pyran-2(5H)-one], for which, under setting [1], the inhibition at 1.1 µM was 10.4%. Besides, the inhibition at 3.3 µM under setting [2] amounted to 35.1%. Besides, the inhibition at 10 µM under setting [3] was 66.6%. For the same molecule, under setting [4], the inhibition at 30 µM came to 79.3%.

Regarding `O=c1oc2c(c(O)c1C(c1ccccc1)C1CC1)CCCCC2CCC1OCCO1` (stereo not shown) [Example 186, 3-(Cyclopropylphenylmethyl)-9-[2-(1,3-dioxolan-2-yl)ethyl]-6,7,8,9-tetrahydro-4-hydroxy-cyclohepta[b]pyran-2(5H)-one], the inhibition at 1.1 µM under setting [1] was determined as 29.2%. Also, under setting [2], the inhibition at 3.3 µM was determined as 64.6%. Moreover, the inhibition at 10 µM under setting [3] came out at 88.7%. The inhibition at 30 µM under setting [4] amounted to 101%.

In the case of `O=c1oc2c(c(O)c1C(c1ccccc1)C1CC1)CCCCC2CC1CCCOC1` (stereo not shown) [Example 187, 3-(Cyclopropylphenylmethyl)-6,7,8,9-tetrahydro-4-hydroxy-9-[(tetrahydro-2H-pyran-3-yl)methyl]-cyclohepta[b]pyran-2(5H)-one], the inhibition at 0.37 µM (dose 0.370 uM, read-out: HIV-1 Protease % Inhib) stood at 10.6%. Further, the inhibition at 1.1 µM under setting [1] turned out to be 32.9%. Besides, the inhibition at 3.3 µM under setting [2] is 68%. Moreover, under setting [3], the inhibition at 10 µM stood at 90%. In addition, under setting [4], the inhibition at 30 µM was 90.2%.

Regarding `O=c1oc2c(c(O)c1C(c1ccccc1)C1CC1)CCCCC2CC1CCCCO1` (stereo not shown) [Example 190, 3-(Cyclopropylphenylmethyl)-6,7,8,9-tetrahydro4-hydroxy-9-[(tetrahydro-2H-pyran-2-yl)methyl]-cyclohepta[b]pyran-2(5H)-one], the inhibition at 1.1 µM under setting [1] came to 35.9%. For the same molecule, under setting [2], the inhibition at 3.3 µM was 79.3%. For the same molecule, the inhibition at 10 µM under setting [3] is 96%. Further, the inhibition at 30 µM under setting [4] turned out to be 102%.
